Measurements taken from ChEMBL document CHEMBL2311532, “Identification of benzofuran central cores for the inhibition of leukotriene A(4) hydrolase” (Bioorg Med Chem Lett, 2013).

Legend:
[1] = target: T1, Leukotriene A-4 hydrolase (Homo sapiens, UniProt P09960); assay: Inhibition of recombinant human LTA4H expressed in Sf9 cells using LTA4 as substrate incubated for 10 mins prior to substrate addition measured after 10 to 30 mins by enzyme immunoassay
T1 sequence (P09960 whole entry): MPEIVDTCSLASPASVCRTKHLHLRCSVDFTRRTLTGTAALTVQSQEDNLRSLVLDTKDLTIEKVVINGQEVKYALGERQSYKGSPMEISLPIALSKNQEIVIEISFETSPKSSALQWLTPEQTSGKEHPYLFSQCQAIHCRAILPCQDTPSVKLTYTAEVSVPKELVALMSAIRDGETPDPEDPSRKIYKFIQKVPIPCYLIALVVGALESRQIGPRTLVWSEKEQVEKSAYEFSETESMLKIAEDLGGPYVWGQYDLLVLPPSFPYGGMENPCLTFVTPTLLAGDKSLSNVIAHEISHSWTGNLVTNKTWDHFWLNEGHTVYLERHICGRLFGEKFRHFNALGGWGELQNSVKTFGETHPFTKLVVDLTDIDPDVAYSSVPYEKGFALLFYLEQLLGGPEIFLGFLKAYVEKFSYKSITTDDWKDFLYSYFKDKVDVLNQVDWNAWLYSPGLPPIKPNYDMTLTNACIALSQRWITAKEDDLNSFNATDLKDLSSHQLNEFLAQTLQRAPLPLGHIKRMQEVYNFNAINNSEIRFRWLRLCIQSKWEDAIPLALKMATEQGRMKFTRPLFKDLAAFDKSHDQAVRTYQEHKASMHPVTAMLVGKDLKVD

[2] = target: T2, Leukotriene A-4 hydrolase (Mus musculus, UniProt P24527); assay: Inhibition of LTA4H in CD1 mouse whole blood assessed as decrease in calcium ionophore-stimulated LTB4 production incubated for 15 mins prior to calcium ionophore challenge measured after 10 to 30 mins by enzyme immunoassay
T2 sequence (P24527 whole entry): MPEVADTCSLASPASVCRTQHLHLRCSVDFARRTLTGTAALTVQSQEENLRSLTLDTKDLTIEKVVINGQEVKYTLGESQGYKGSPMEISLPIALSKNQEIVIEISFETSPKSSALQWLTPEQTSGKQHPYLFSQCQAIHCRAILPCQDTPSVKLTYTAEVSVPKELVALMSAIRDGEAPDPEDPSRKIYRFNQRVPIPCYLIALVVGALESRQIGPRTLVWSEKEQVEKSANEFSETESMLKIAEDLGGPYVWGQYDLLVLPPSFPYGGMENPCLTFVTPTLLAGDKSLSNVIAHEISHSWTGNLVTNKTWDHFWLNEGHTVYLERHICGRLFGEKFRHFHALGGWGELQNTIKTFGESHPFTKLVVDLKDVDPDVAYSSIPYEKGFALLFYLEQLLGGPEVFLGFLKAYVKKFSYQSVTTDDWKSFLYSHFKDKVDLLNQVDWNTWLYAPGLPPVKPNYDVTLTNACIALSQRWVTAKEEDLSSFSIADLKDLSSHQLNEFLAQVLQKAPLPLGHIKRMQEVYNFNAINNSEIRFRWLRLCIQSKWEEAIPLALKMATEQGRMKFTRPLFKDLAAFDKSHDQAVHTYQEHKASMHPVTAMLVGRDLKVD

Mus musculus [3] = assay: Inhibition of LTA4H in po dosed Balb/c mouse assessed as decrease in calcium ionophore-stimulated LTB4 production in blood administered for 4 hrs prior to calcium ionophore challenge measured after 10 to 30 mins by enzyme immunoassay; format: functional
[4] = target: T1, Leukotriene A-4 hydrolase; assay: Inhibition of LTA4H in human whole blood assessed as decrease in LTB4 production
[5] = Clearance in Sprague-Dawley rat at 3 mg/kg, iv and 10 mg/kg, po; format: ADME, organism-based; conditions: in vivo
Mus musculus [6] = assay: Inhibition of LTA4H in po dosed Balb/c mouse assessed as concentration required to decrease calcium ionophore-stimulated LTB4 production in blood administered for 4 hrs prior to calcium ionophore challenge measured after 10 to 30 mins by enzyme immunoassay; format: functional, organism-based
[7] = Half life in Sprague-Dawley rat at 3 mg/kg, iv and 10 mg/kg, po; format: ADME, organism-based; conditions: in vivo
[8] = Volume of distribution at steady state in Sprague-Dawley rat at 3 mg/kg, iv and 10 mg/kg, po; format: ADME, organism-based; conditions: in vivo, read-out: Vdss
[9] = Oral bioavailability in Sprague-Dawley rat at 10 mg/kg; format: ADME, organism-based; conditions: in vivo

SMILES	IC50 [1]	IC50 [2]	other results
O=C(O)C1CCN(Cc2coc3cc(Oc4nc5ncccc5s4)ccc23)CC1	8.3 nM	280 nM	
CC(=O)N[C@H]1C[C@H]2CC[C@@H](C1)N2Cc1coc2cc(Oc3nc4ncccc4s3)ccc12	1.6 nM	9.8 nM	
CC(=O)N1CC2CC1CN2Cc1cc2cc(Oc3nc4ncccc4s3)ccc2o1 (centres undefined)	7 nM	27 nM	
CC(=O)N1CC2CC1CN2Cc1cc2ccc(Oc3nc4ncccc4s3)cc2o1 (centres undefined)	62 nM	210 nM	
CC(=O)N[C@H]1C[C@H]2CC[C@@H](C1)N2Cc1coc2cc(Oc3nc4ccccc4s3)ccc12	7.3 nM	69 nM	
CC(=O)N1C[C@@H]2C[C@H]1CN2Cc1coc2cc(Oc3nc4ccccc4s3)ccc12	34 nM	250 nM	
c1cnc2nc(Oc3ccc4c(CN5CCOCC5)coc4c3)sc2c1	25 nM	49 nM	
c1ccc2sc(Oc3ccc4c(CN5CCCCC5)coc4c3)nc2c1	67 nM	420 nM	
CC(=O)N1CC2CC1CN2Cc1coc2cc(Oc3nc4cnccc4s3)ccc12 (centres undefined)	340 nM		
O=C(O)C1CCN(Cc2coc3cc(Oc4nc5ccccc5s4)ccc23)CC1	14 nM	19 nM	
c1ccc2sc(Oc3ccc4cc(CN5CCCCC5)oc4c3)nc2c1	430 nM		
c1ccc2sc(Oc3ccc4oc(CN5CCCCC5)cc4c3)nc2c1	330 nM		
c1ccc2sc(Oc3ccc4c(CN5CCOCC5)coc4c3)nc2c1	140 nM	1120 nM	
O=C1CCCN1C1CCN(Cc2coc3cc(Oc4nc5ncccc5s4)ccc23)CC1		21 nM	ED50 (Mus musculus [3]): 0.3 mg/kg; inhibition (Mus musculus [3]): Dose-dependent effect; IC50 [4]: 61 nM; clearance [5]: 11.7 mL/min/kg; EC50 (Mus musculus [6]): 3 nM; half-life [7]: 2.5 h; Vd [8]: 1.6 L/kg; bioavailability [9]: 61%
CC(=O)N1CC2CC1CN2Cc1cc2cc(Oc3nc4cccnc4s3)ccc2o1 (centres undefined)	340 nM		
CC(=O)N1CC2CC1CN2Cc1cc2ccc(Oc3nc4cnccc4s3)cc2o1 (centres undefined)	2370 nM		
c1cnc2nc(Oc3ccc4oc(CN5CCCCC5)cc4c3)sc2c1	66 nM	91 nM	
CC(=O)NC1CCN(Cc2coc3cc(Oc4nc5ccccc5s4)ccc23)CC1	26 nM	100 nM	
c1cnc2nc(Oc3ccc4cc(CN5CCCCC5)oc4c3)sc2c1	51 nM	140 nM	
c1cnc2nc(Oc3ccc4c(CN5CCCCC5)coc4c3)sc2c1	4.6 nM	21 nM	
CC(=O)N1CC2CC1CN2Cc1cc2ccc(Oc3nc4cccnc4s3)cc2o1 (centres undefined)	2130 nM		
CC(=O)N1CC2CC1CN2Cc1coc2cc(Oc3nc4ncccc4s3)ccc12 (centres undefined)	7.3 nM	21 nM	
O=C1CCCN1C1CCN(CCOc2ccc(Oc3nc4ccccc4s3)cc2)CC1			ED50 (Mus musculus [3]): 10 mg/kg; clearance [5]: 8.33 mL/min/kg; EC50 (Mus musculus [6]): 72 nM; half-life [7]: 0.9 h; Vd [8]: 1.1 L/kg; bioavailability [9]: 29%
O=C1CCCN1C1CCN(Cc2coc3cc(Oc4nc5ccccc5s4)ccc23)CC1	58 nM	230 nM	
CC(=O)NC1CCN(Cc2coc3cc(Oc4nc5ncccc5s4)ccc23)CC1	3.7 nM	17 nM	
CC(=O)N1C[C@@H]2C[C@H]1CN2Cc1coc2cc(Oc3nc4ncccc4s3)ccc12	7.3 nM	21 nM	
CC(=O)N1CC2CC1CN2Cc1coc2cc(Oc3nc4cccnc4s3)ccc12 (centres undefined)	300 nM		
CC(=O)N1CC2CC1CN2Cc1cc2cc(Oc3nc4cnccc4s3)ccc2o1 (centres undefined)	340 nM		
